The source of these data is ChEMBL document CHEMBL5729279, “Cycloalkyl-diamines for the treatment of inflammation” (2022).

The target in the test is Sigma non-opioid intracellular receptor 1 (Homo sapiens, UniProt Q99720). Briefly: Pharmacological Activity: Ki determinations were generously provided by the National Institute of Mental Health's Psychoactive Drug Screening Program (PDSP).
Sigma non-opioid intracellular receptor 1, sequence (Q99720 whole entry): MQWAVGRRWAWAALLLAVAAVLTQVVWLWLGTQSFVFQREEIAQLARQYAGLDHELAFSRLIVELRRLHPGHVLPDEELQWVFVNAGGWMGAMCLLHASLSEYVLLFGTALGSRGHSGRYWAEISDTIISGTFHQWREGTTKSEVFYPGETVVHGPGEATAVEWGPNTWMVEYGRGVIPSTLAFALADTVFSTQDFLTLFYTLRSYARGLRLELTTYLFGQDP

Take `CN[C@@]1(c2ccccc2Cl)CCCCC1NCCCN1CCCC1` (stereo partly specified): the affinity corresponds to a Ki of 37.2 nM.

As usually defined, the Ki is a measure of affinity in units of concentration, obtained from inhibition or displacement.
